Assay results published in US20110313032A1, “COMPETITIVE INHIBITORS OF TYPE II DEHYDROQUINASE ENZYME” (priority 2008, published 2011).
Where two headings read alike, the source gives them in different places.

Key:
[1] = target: T1, type II dehydroquinase from Mycobacterium tuberculosis (Mycobacterium tuberculosis, UniProt P9WPX7); assay: biochemical; conditions: pH = 7.0, 25° C., 50 mM Tris•HOAc
Procedure: (§1) Effect of compounds of formula I of the invention on the catalytic activity of the type II dehydroquinase from various sources. The inhibitory potency of compounds I of the invention against type II dehydroquinases from Mycobacterium tuberculoris, Streptomyces coelicolor and Helicobacter pylori were assayed as it is described in the following articles: 1) Sanchez-Sixto, C.; Prazeres, V. F. V.; Castedo, L.; Lamb, H.; Hawkins, A. R.; Gonzalez-Bello, C. J. Med. Chem. 2005, 48, 4871; 2) Prazeres, V. F. V.; Sanchez-Sixto, C.; Castedo, L.; Lamb, H.; Hawkins, A. R.; Riboldi-Tunnicliffe; Coggins, J. R.; Lapthorn, A. J.; González-Bello, C. Chem Med Chem 2007, 2, 194; and 3) Sanchez-Sixto, C.; Prazeres, V. F. V.; Castedo, L.; S. W. Suh, Lamb, H.; Hawkins, A. R.; Canada, F. J.; Jiménez-Barbero, J.; González-Bello, C. Chem Med Chem 2008, 3, 756.

[2] = target: type II dehydroquinase from Streptomyces coelicolor (Streptomyces coelicolor, UniProt P15474); assay: Inhibition of type II dehydroquinase from Streptomyces coelicolor (Ki); type: biochemical
Chain of type II dehydroquinase from Streptomyces coelicolor (P15474 whole entry): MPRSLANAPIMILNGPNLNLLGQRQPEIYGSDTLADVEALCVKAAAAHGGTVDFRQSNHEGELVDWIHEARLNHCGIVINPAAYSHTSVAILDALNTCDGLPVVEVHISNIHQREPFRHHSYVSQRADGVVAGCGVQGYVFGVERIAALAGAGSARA
Procedure: as §1

[3] = target: T2, type II dehydroquinase from Helicobacter pylori (Helicobacter pylori, UniProt Q48255); assay: Inhibition of type II dehydroquinase from Helicobacter pylori (Ki); type: biochemical; conditions: pH = 7.0, 25° C., 50 mM Tris•HCl
T2 sequence (Q48255 1-167): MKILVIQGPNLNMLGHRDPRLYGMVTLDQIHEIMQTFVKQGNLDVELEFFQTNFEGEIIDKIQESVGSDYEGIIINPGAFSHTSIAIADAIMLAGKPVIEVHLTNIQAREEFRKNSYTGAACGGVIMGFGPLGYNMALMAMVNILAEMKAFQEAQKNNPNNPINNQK
Procedure: as §1

[4] = target: T1, type II dehydroquinase from Mycobacterium tuberculosis; conditions: read-out: Km of natural substrate, M. tuberculosis; cited from earlier work
[5] = target: T2, type II dehydroquinase from Helicobacter pylori; conditions: read-out: Km of natural substrate, H. pylori; cited from earlier work
[6] = Inhibition constants Ki, M. tuberculosis
[7] = Inhibition constants Ki, S. coelicolor, pH = 7.0, 25° C., 50 mM Tris•HCl
[8] = read-out: Inhibition constants Ki, H. pylori
[9] = read-out: Inhibition constants Ki, M. tuberculosis
[10] = pH = 7.0, 25° C., 50 mM Tris•HCl, read-out: Inhibition constants Ki, S. coelicolor
[11] = Inhibition constants Ki, H. pylori

T1 sequence (P9WPX7 whole entry): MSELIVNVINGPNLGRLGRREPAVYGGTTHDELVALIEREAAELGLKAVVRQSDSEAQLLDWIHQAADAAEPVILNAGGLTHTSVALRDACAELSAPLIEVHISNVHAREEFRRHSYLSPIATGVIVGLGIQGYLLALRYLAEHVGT

| Structure (SMILES) | melting point | Ki [1, 6] | other results |
| --- | --- | --- | --- |
| O=C([O-])[C@]1(O)C=C(OCc2ccc3sccc3c2)[C@@H](O)[C@H](O)C1.[Na+] (hydrate or solvate) [Ib-7, Sodium (1R,4S,5R)-1,4,5-trihydroxy-3[(benzo[b]thiophen-5-yl)methoxy]cyclohex-2-en-1-carboxylate] | 157 to 160 °C (dec.) |  |  |
| O=C([O-])[C@@]1(O)C[C@@H](O)[C@H](O)C(OCc2ccc3ccccc3c2)=C1Cc1ccc2ccccc2c1.[Na+] (hydrate or solvate) [Ib-11, Sodium (1R,4S,5R)-1,4,5-trihydroxy-3-(naphth-2-yl)methoxy-2-(naphth-2-yl)methylcyclohex-2-en-1-carboxylate] | 184 to 187 °C |  |  |
| O=C([O-])[C@@]1(O)C[C@@H](O)[C@H](O)C(OCc2cccs2)=C1Cc1cc2ccccc2s1.[Na+] (hydrate or solvate) [Ib-12, Sodium (1R,4S,5R)-1,4,5-trihydroxy-3-(thien-2-yl)methoxy-2-(benzo[b]thiophen-2-yl)methylcyclohex-2-en-1-carboxylate] | 191 to 194 °C |  |  |
| O=C([O-])[C@@]1(O)C[C@@H](O)[C@H](O)C(OCc2ccc3sccc3c2)=C1Cc1cccs1.[Na+] (hydrate or solvate) [Ib-13, Sodium (1R,4S,5R)-1,4,5-trihydroxy-3-(benzo[b]thiophen-5-yl)methoxy-2-(thien-2-yl)methylcyclohex-2-en-1-carboxylate] | 184 °C (dec.) |  |  |
| Cc1cc2c(s1)[C@@H](O)[C@H](O)C[C@]2(O)C(=O)O (hydrate or solvate) [Ic-2, (4R, 6R, 7S)-4,6,7-trihydroxy-2-methyl-4,5,6,7-tetrahydrobenzo[b]thiophen-4-carboxylic acid] | 92 to 95 °C |  |  |
| Cc1ccc(CC2C(=O)C(O)C(O)CC2(O)C(=O)O)cc1 (single isomer, unassigned) (hydrate or solvate) [(2R)-Ia-4] | 105 to 108 °C |  |  |
| O=C1C(O)C(O)CC(O)(C(=O)O)C1Cc1c(F)c(F)c(F)c(F)c1F (single isomer, unassigned) (hydrate or solvate) [(2S)-Ia-6] | 123 to 125 °C |  |  |
| Cc1ccc(CC2C(=O)C(O)C(O)CC2(O)C(=O)O)cc1 (single isomer, unassigned) [(2S)-Ia-4] | 134 to 138 °C | 90 nM | Ki [2, 7]: 150 nM; Ki [3, 8]: 970 nM |
| COc1ccc(CC2C(=O)C(O)C(O)CC2(O)C(=O)O)cc1 (single isomer, unassigned) [(2S)-Ia-5] | 138 to 143 °C | 100 nM | Ki [2, 7]: 340 nM |
| O=C1C(O)C(O)CC(O)(C(=O)O)C1Cc1ccc2sccc2c1 (single isomer, unassigned) [(2S)-Ia-7] | 152 to 155 °C | 55 nM | Ki [2, 7]: 38 nM; Ki [3, 8]: 900 nM |
| O=C1[C@@H](O)[C@H](O)C[C@](O)(C(=O)O)[C@H]1Cc1ccccc1 [(2R)-Ia-3, (2R)-2-benzyl-3-dehydroquinic acid] | 146 to 148 °C |  | Ki [1, 9]: 100 nM; Ki [2, 7]: 1550 nM; Ki [3, 8]: 1400 nM |
| O=C1[C@@H](O)[C@H](O)C[C@](O)(C(=O)O)[C@@H]1Cc1ccccc1 [(2S)-Ia-3, (2S)-2-benzyl-3-dehydroquinic acid] | 131 to 134 °C |  | Ki [1, 9]: 90 nM; Ki [2, 7]: 1050 nM; Ki [3, 8]: 1180 nM |
| O=C(O)[C@@]1(O)C[C@@H](O)[C@H](O)c2sccc21 [Ic-1, (4R, 6R, 7S)-4,6,7-trihydroxy-4,5,6,7-tetrahydrobenzo[b]thiophen-4-carboxylic acid] | 128 to 131 °C | 3000 nM | Ki [2, 10]: 9700 nM; Ki [3, 11]: 34000 nM |
| O=C(O)[C@@]1(O)C[C@@H](O)[C@H](O)c2sc(/C=C/C3CC3)cc21 [Ic-6] | 103 to 105 °C | 110 nM | Ki ([2]; read-out: affinities in the case of S. coelicolor): 0.3 nM; Ki [3, 11]: 1080 nM |
| O=C(O)[C@@]1(O)C[C@@H](O)[C@H](O)c2sc(-c3ccccc3)cc21 [Ic-7, (4R,6R,7S)-4,6,7-trihyclroxy-2-phenyl-4,5,6,7-tetrahydroben-zo[b]thiophen-4-carboxylic acid] | 168 to 173 °C | 97 nM | Ki [2, 10]: 85 nM; Ki [3, 11]: > 150000 nM |
| CCc1cc2c(s1)[C@@H](O)[C@H](O)C[C@]2(O)C(=O)O [Ic-9, (4R,6R,7S)-2-ethyl-4,6,7-trihydroxy-4,5,6,7-tetrahydrobenzo[b]thiophen-4-carboxylic acid] | 130 °C (dec.) | 185 nM | Ki [2, 10]: 800 nM; Ki [3, 11]: 3400 nM |
| O=C(O)[C@@]1(O)C[C@@H](O)[C@H](O)c2sc(/C=C/c3ccccc3)cc21 [Ic-11] | 200 °C (dec.) |  | Ki [2, 10]: 150 nM; Ki [3, 11]: 16000 nM |
| O=C1C[C@@](O)(C(=O)O)C[C@@H](O)[C@@H]1O [natural substrate] |  |  | Km [4]: 40 µM; Km [5]: 444 µM |
